The source of these data is US20070037752A1, “Novel alanyl-amino peptidase inhibitors for functionally influencing different cells and treating immunological, inflammatory, neuronal, and other diseases” (priority 2003, published 2007).

alanyl aminopeptidases (APN), sequence (P15144 whole entry, species assumed): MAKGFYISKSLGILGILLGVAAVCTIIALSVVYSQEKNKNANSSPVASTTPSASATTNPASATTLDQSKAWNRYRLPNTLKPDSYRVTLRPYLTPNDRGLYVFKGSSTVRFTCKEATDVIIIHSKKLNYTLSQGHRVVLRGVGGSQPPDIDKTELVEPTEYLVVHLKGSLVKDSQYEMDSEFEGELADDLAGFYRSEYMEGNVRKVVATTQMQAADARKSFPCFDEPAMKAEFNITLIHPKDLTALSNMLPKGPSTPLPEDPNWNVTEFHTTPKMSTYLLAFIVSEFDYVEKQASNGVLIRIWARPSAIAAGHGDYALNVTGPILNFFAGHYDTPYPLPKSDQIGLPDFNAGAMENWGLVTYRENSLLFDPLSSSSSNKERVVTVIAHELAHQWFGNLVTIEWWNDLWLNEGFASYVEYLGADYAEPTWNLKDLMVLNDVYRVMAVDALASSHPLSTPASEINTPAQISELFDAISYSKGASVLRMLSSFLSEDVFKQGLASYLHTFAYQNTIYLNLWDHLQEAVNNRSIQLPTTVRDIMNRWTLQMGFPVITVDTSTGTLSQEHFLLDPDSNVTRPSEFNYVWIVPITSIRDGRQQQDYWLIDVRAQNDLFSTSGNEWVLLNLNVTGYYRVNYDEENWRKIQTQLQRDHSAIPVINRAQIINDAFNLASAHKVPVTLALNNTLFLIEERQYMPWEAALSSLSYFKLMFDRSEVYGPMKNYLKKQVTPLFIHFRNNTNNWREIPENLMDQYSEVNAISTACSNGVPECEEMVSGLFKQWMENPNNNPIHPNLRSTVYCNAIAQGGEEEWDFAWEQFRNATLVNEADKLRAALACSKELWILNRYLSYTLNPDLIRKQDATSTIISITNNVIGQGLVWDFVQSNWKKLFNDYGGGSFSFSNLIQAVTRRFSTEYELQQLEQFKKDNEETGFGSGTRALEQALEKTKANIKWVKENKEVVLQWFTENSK

The first experiment concerns the target alanyl aminopeptidases (APN) (Homo sapiens, UniProt P15144). Nature of the experiment: Inhibition of alanyl aminopeptidase enzymatic activity, fluorogenic substrate (Ala)2-rhodamine 110. Type of experiment: biochemical. Conditions: Table 1, unstarred values; read-out: IC50APN. The procedure:
The inhibition characteristics measured are referred to as IC-50 values or ID50 values (the latter marked with “*”) for said enzyme. The enzymatic activity was determined by means of the fluorogenic substrate/product (Ala)2-rhodamine 110.
As to `O=C(ON1C(=O)CCC1=O)C1CCC(=O)N1C(=O)OCc1ccccc1` (stereo not drawn) [A1.007], the IC50 came out at 8.4 µM.

The same experiment, now with this note: Table 3, starred values = ID50; read-out: ID50 APN (values marked with *).
With `CCCC1NC(=S)N(c2ccccc2)C1=O` (stereo not drawn) [A3.332], the IC50 amounted to 154 µM.

`Cn1cccc1CC(=O)N/N=C\c1ccco1` [A3.320]: the IC50 was 113 µM.

With `O=C(Cc1ccccc1)NCC(=O)N/N=C/c1ccco1` [A3.300], the IC50 amounted to 73.1 µM.

The experiment is the same for the next values; noted with them: Table 3, unstarred values; read-out: IC50APN.
With `Cc1ccc(/C=N/NC(=O)c2nnn(-c3nonc3N)c2C)o1` [A3.041], the IC50 was determined as 10.9 µM.

For `NC(=O)C1CCN(C(=O)/C(=C/c2ccco2)NC(=O)c2ccccc2)CC1` [A3.188], the IC50 is 30.5 µM.

Regarding `O=C1C(Cc2ccc(O)cc2)NC(=S)N1C1CCCCC1` (stereo not drawn) [A3.118], the IC50 was determined as 21.3 µM.

For the compound `O=C(COc1ccc2ccccc2c1)N/N=C/c1ccco1` [A3.062], the IC50 came out at 13.9 µM.

Turning to `Cc1ccc(C)n1-c1cccc(C(=O)N/N=C/c2cc(Br)c(O)c(Br)c2)c1` [A3.150], the IC50 was 24.9 µM.

Consider `O=C(N/N=C/c1ccco1)c1ccc(=O)[nH]n1` [A3.130], for which the IC50 came to 22.4 µM.

Turning to `O=C(N/N=C/c1ccco1)c1ccc(F)cc1` [A3.296], the IC50 was 68.9 µM.

Take `COC(=O)c1cc(-c2ccc(/C=C3\C(=O)N(CCCO)C(=O)C(C#N)=C3C)o2)ccc1Cl` [A3.069]: the IC50 amounted to 15.2 µM.

Take `CC(C)c1cc(C(=O)N/N=C/c2ccco2)[nH]n1` [A3.080]: the IC50 was determined as 16.6 µM.

As to `O=C(CNC(=O)C(c1ccccc1)c1ccccc1)N/N=C/c1ccco1` [A3.071], the IC50 is 15.6 µM.

Consider `COc1ccc(/C(C)=N/NC(=O)CNC(=O)/C=C\c2ccco2)cc1` [A3.181], for which the IC50 worked out at 29.4 µM.

Regarding `CCOC(=O)c1cc(-c2ccc(/C=C3/C(=O)NC(=O)C(C#N)=C3C)o2)ccc1Cl` [A3.268], the IC50 was 52.1 µM.

Turning to `CC(=O)c1cccc(-c2ccc(/C=C3/C(=O)N(CCCO)C(=O)C(C#N)=C3C)o2)c1` [A3.089], the IC50 came out at 18.2 µM.

In the case of `O=C(N/N=C/c1ccco1)c1ccc(O)cc1O` [A3.229], the IC50 worked out at 38.3 µM.

On to `O=C(Nc1ccc(NCc2cc(Cc3ccccc3Cl)cc(Br)c2O)cc1)c1ccco1` [A3.017], for which the IC50 turned out to be 4.9 µM.

For `CN1C/C(=C/c2ccco2)C(=O)/C(=C/c2ccco2)C1` [A3.098], the IC50 was 19.2 µM.

Regarding `COc1ccc(/C(C)=N/NC(=O)CNC(=O)/C=C\c2ccco2)cc1OC` [A3.102], the IC50 was 19.9 µM.

For `CC1=C(C#N)C(O)=NC(=O)/C1=C/c1ccc(-c2ccc(Cl)c(C(=O)OC(C)C)c2)o1` [A3.120], the IC50 is 21.4 µM.

As to `O=C(N/N=C/c1cc(Br)cc(Br)c1OC(=O)c1ccccc1)/C(=C/c1ccc2c(c1)OCO2)NC(=O)c1ccccc1` [A3.101], the IC50 came to 19.8 µM.

In the case of `O=C(/C=C/c1ccco1)Nc1cccc(C(=O)O)c1` [A3.240], the IC50 turned out to be 44.2 µM.

Turning to `O=C(CCC(=O)Nc1ccc(Br)cc1)N/N=C/c1ccco1` [A3.019], the IC50 turned out to be 5.2 µM.

For the compound `COc1ccc(/C=N/NC(=O)C2=C(C)Nc3ccccc3S2)cc1Cn1nc(C)c(Br)c1C` [A3.016], the IC50 came out at 4.8 µM.

For `Cc1ccc(/C=N/NC(=O)c2nnn(-c3nonc3N)c2CN2CCOCC2)o1` [A3.163], the IC50 was determined as 26.7 µM.

For `Cc1ccc(/C=N/NC(=O)COc2ccc(Cl)cc2)o1` [A3.076], the IC50 was determined as 16 µM.

For `O=C(N/N=C/c1ccco1)c1cccc(NC(=O)c2ccccc2Cl)c1` [A3.110], the IC50 is 20.6 µM.

As to `Cc1ccccc1C(=O)Nc1ccc(C(=O)N/N=C/c2ccco2)cc1` [A3.246], the IC50 was determined as 45.4 µM.

Regarding `O=C(CCn1nnc2ccccc21)N/N=C/c1ccco1` [A3.310], the IC50 came out at 82.9 µM.

Turning to `Cc1cccc(C)c1NC(=S)NC(=O)c1cccs1` [A3.055], the IC50 came out at 12.9 µM.

As for `NNC(=O)c1ccc(NS(=O)(=O)c2cccs2)cc1` [A3.047], the IC50 was 11.8 µM.

`Cc1ccc(/C=N/NC2=NC(=O)CS2)o1` [A3.159]: the IC50 worked out at 22.6 µM.

Still in this experiment, the particulars now being: Table 4, starred values = ID50; read-out: ID50 APN (values marked with *).
For `Cc1cccc(C(=O)Nc2ccc(C(=O)N/N=C/c3ccco3)cc2)c1` [A4.158], the IC50 is 67.1 µM.

On to `COc1ccc(OCC(=O)N/N=C/c2c(Br)cc(Br)c(O)c2Br)cc1` [A4.164], for which the IC50 was determined as 76.4 µM.

With `C/C(=N\NC(=O)c1ccn(C)n1)c1ccco1` [A4.186], the IC50 came out at 323 µM.

Still in this experiment, the particulars now being: Table 4, unstarred values; read-out: IC50APN.
Regarding `O=C(N/N=C/c1cc([N+](=O)[O-])ccc1O)c1ccc(O)cc1O` [A4.054], the IC50 is 20.2 µM.

As to `CCc1ccc(-c2cc(C(=O)N/N=C/c3c(C)nn(-c4ccccc4)c3C)[nH]n2)cc1` [A4.027], the IC50 was 13.6 µM.

Consider `Cc1c(Cl)cccc1NC(=O)CCC(=O)N/N=C/c1ccco1` [A4.119], for which the IC50 came out at 36.6 µM.

On to `O=C(Cc1cccs1)N/N=C\c1ccco1` [A4.178], for which the IC50 turned out to be 143 µM.

As for `CCN(CC)c1ccc(/C=C(/NC(=O)c2ccccc2)C(=O)N/N=C/c2cc(I)c(O)c(I)c2)cc1` [A4.004], the IC50 was determined as 5.1 µM.

Take `COc1ccccc1C(=O)N/N=C/c1ccc(C)o1` [A4.110]: the IC50 worked out at 34.7 µM.

As to `O=C(N/N=C/c1ccco1)c1ccccc1O` [A4.037], the IC50 amounted to 16 µM.

Turning to `O=C(N/N=C/c1ccco1)c1cc(-c2ccco2)n[nH]1` [A4.058], the IC50 worked out at 20.9 µM.

As for `CC(/C=C/c1ccco1)=N\NC(=O)CNc1ccc2ccccc2c1` [A4.091], the IC50 was 28.5 µM.

For `Cc1ccc(/C=N/NC(=O)c2ccc(F)cc2)o1` [A4.108], the IC50 stood at 34.4 µM.

Take `Cc1ccc(S(=O)(=O)N2CCC(C(=O)N/N=C/c3ccco3)CC2)cc1` [A4.160]: the IC50 came out at 69.3 µM.

Consider `O=C(N/N=C/c1ccco1)c1ccccc1` [A4.120], for which the IC50 came out at 37.7 µM.

Regarding `Cc1cc(Br)c(OCC(=O)N/N=C/c2c(Br)cc(Br)c(O)c2Br)c(Br)c1` [A4.126], the IC50 was 42.2 µM.

For `Cc1ccc(/C=N/NC(=O)c2cn(-c3nonc3N)nn2)o1` [A4.008], the IC50 amounted to 6.9 µM.

As to `CC(=O)n1cc(/C=C/C=N/NC(=O)CC#N)c2ccccc21` [A4.113], the IC50 was 35.5 µM.

As to `Cc1ccc(/C=N/NC(=O)COc2ccc(Cl)cc2)o1` [A4.038], the IC50 was 16 µM.

Take `Cc1ccc(C)n1-c1cccc(C(=O)N/N=C/c2cc(Br)c(O)c(Br)c2)c1` [A4.075]: the IC50 amounted to 24.9 µM.

The experiment is the same for the next values; noted with them: Table 5, starred values = ID50; read-out: ID50 APN (values marked with *).
`CC(C)Oc1ccc(/C=N/CCC2(c3ccccc3)CCOC(C)(C)C2)cc1` (stereo not drawn) [A5.007]: the IC50 came to 197 µM.

Staying with this experiment, now noted: Table 8, unstarred values; read-out: IC50APN.
Consider `Cc1cc(=O)[nH]c(N/N=C/c2ccco2)n1` [A8.018], for which the IC50 turned out to be 18.2 µM.

Turning to `COC(=O)C1=C(C(=O)OC)C(c2cc(Br)ccc2O)c2sc(O)nc2S1` (stereo not drawn) [A8.003], the IC50 worked out at 4.7 µM.

With `O=C1C(Cc2ccc(O)cc2)NC(=S)N1C1CCCCC1` (stereo not drawn) [A8.019], the IC50 turned out to be 21.3 µM.

Staying with this experiment, now noted: Table 9, starred values = ID50; read-out: ID50 APN (values marked with *).
With `CC(C)N1CCN(Cc2ccccc2[N+](=O)[O-])CC1` [A9.128], the IC50 turned out to be 252 µM.

Still in this experiment, the particulars now being: Table 9, unstarred values; read-out: IC50APN.
For `Cc1ccc(Cn2c(SCCC(=O)O)nc3c2c(=O)n(C)c(=O)n3C)cc1` [A9.070], the IC50 was found to be 28 µM.

For `Cc1ccc(/C=N\NC(=O)c2cnccn2)o1` [A9.020], the IC50 is 9.8 µM.

Regarding `O=C(N/N=C\c1ccco1)c1cnccn1` [A9.079], the IC50 was found to be 30.1 µM.

Turning to `CCOC(=O)C1=C(N)NC2=C(CCCC2)C12C(=O)Nc1ccccc12` (stereo not drawn) [A9.088], the IC50 came to 33.6 µM.

Take `CC1=C(C#N)C(O)=NC(=O)/C1=C/c1ccc(-c2ccc(Cl)cc2Cl)o1` [A9.085]: the IC50 turned out to be 32.4 µM.

For `C=CCN1C(=O)C(C#N)=C(C)/C(=C\c2ccc(-c3cc(C)c(C)cc3[N+](=O)[O-])o2)C1=O` [A9.076], the IC50 was found to be 29.3 µM.

Take `CN(C)CCCN1CCN(c2nc(N(C)CC(=O)O)c3ncn(Cc4ccc([N+](=O)[O-])cc4)c3n2)CC1` [A9.024]: the IC50 was 11.8 µM.

The same experiment, now with this note: Table 10; read-out: IC50APN.
On to `C/C(=N/O)c1ccc2c(c1)OCCOCCOc1cc(/C(C)=N\O)ccc1OCCOCCO2` [A10.004], for which the IC50 was found to be 8.6 µM.

Still in this experiment, the particulars now being: Table 11; read-out: IC50APN.
For the compound `NCCCCCC(=O)C[N+](=O)[O-]` [A11.025], the IC50 was determined as 33.2 µM.

Turning to `O=C(N/N=C/c1cc(Br)ccc1OC(=O)c1ccc([N+](=O)[O-])cc1)/C(=C\c1ccc2c(c1)OCO2)NC(=O)c1ccccc1` [A11.031], the IC50 stood at 54.2 µM.

Turning to `O=C(N/N=C/c1cccc([N+](=O)[O-])c1)c1ccco1` [A11.029], the IC50 is 45.4 µM.

In the case of `CC(=O)Oc1ccc([N+](=O)[O-])cc1/C=N/NC(=O)COc1cc(C)ccc1C(C)C` [A11.014], the IC50 is 20.3 µM.

Take `O=C1c2cccc3c(Br)c([N+](=O)[O-])cc(c23)C(=O)N1c1cccc([N+](=O)[O-])c1` [A11.016]: the IC50 came out at 23.3 µM.

As to `CCCCCCCSc1nnc2c(n1)CC(C(=O)c1ccccc1)=Nc1ccccc1-2` [A11.019], the IC50 came to 28.9 µM.

`O=C1CNC(c2cccc([N+](=O)[O-])c2)N1O` (stereo not drawn) [A11.018]: the IC50 came to 26.4 µM.

Still in this experiment, the particulars now being: Table 12; read-out: IC50APN.
With `Cc1cc(Cl)ccc1OCCCC(=O)NO` [A12.006], the IC50 stood at 5.6 µM.

`COC(=O)C(NC(=O)c1ccccc1)(Nc1sc2c(c1C#N)CCC(C(C)(C)C)C2)C(F)(F)F` (stereo not drawn) [A12.056]: the IC50 is 43.6 µM.

Take `CC1=C(C#N)C(=O)N(CCCO)C(=O)/C1=C\c1ccc(-c2ccc(Br)cc2)o1` [A12.030]: the IC50 stood at 16 µM.

As to `CC(CCc1ccccc1)C(=O)NO` (stereo not drawn) [A12.044], the IC50 came out at 25.2 µM.

The same experiment, now with this note: Table 13; read-out: IC50APN.
Regarding `CCCN1C(=O)C(C#N)=C(C)/C(=C\c2ccc(-c3cccc(Cl)c3C)o2)C1=O` [A13.011], the IC50 was determined as 20.8 µM.

For `CCCOC(=O)c1cc(-c2ccc(/C=C3\C(=O)N(CCO)C(=O)C(C#N)=C3C)o2)ccc1Cl` [A13.023], the IC50 turned out to be 54 µM.

For the compound `C=CCN1C(=O)C(C#N)=C(C)/C(=C\c2ccc(-c3cc(C)c(C)cc3[N+](=O)[O-])o2)C1=O` [A13.015], the IC50 is 29.3 µM.
